Patent US10155775B2, “Substituted amino six-membered saturated heteroalicycles as long-acting DPP-IV inhibitors” (Centaurus Biopharma Co., Ltd., priority 2015, dated 2018)
Where two headings read alike, the source gives them in different places. One block for each compound: values may come before it.

Legend:
CYP2B6 = CYP2B6 (Homo sapiens (Human), UniProt P20813); experiment: IC50 of inhibiting CYP enzyme system, human liver microsomes; type: in vitro ADME; settings: read-out: IC50 in inhibiting CYP Enzyme System 2B6
CYP2B6, sequence (P20813 whole entry): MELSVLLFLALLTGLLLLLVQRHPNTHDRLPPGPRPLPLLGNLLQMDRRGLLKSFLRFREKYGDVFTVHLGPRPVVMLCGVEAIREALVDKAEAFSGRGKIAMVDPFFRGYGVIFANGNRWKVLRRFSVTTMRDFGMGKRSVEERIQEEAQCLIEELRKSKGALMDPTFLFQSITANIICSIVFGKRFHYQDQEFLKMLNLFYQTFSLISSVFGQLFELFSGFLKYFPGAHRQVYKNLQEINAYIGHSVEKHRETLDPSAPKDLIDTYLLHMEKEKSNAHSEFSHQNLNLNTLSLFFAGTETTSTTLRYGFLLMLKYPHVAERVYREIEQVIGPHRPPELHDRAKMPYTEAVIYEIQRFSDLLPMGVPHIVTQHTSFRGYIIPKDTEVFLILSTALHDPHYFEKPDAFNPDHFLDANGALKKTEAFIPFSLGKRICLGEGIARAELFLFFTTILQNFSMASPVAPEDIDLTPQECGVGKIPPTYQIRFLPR
Protocol: (§1) IC50 values of compounds of the present application in inhibiting CYP enzyme system were determined by using the following method.
(§2) Human liver microsomes frozen at −80° C. in refrigerator were placed on ice for thawing, of which 100 μL was placed in a constant temperature oscillator for incubation (1 hour) at 60° C. and 100 rpm when immediately thawing, and the rest was frozen immediately in refrigerator at −80° C. After one hour, 100 μL inactivated liver microsomes were taken out, and thereto was added 400 μL phosphate buffer, and uniformly mixed to form a 4 mg/mL solution of inactivated liver microsomes. Meanwhile, human liver microsomes frozen at −80° C. in refrigerator were placed on ice for thawing, of which 100 μL was taken out when immediately thawing, and thereto was added 400 μL phosphate buffer, and uniformly mixed to form a 4 mg/mL solution of liver microsomes. The incubation mixtures for a positive control, test compounds and a negative control were prepared according to Table 3 below:
(§3) The above incubation mixtures were incubated for 5 minutes in a constant temperature oscillator at 37° C. and 100 rpm.
(§4) To 2.5 μL working solution of the test compounds or positive control (the negative control was added to the working solution of the test compounds) were added 91.5 μL the incubation mixtures and 6 μL NADPH solution, and then the reaction was initiated via vortex. The resulting solutions were incubated in a constant temperature oscillator at 37° C. and 100 rpm, and the incubation time was shown in Table 4 below:
(§5) Samples from the terminated reaction were centrifuged at 12000 rpm for 10 minutes, and supernatants were taken out for analysis.
(§6) Analyst 1.4.2 or equivalent software was used for data processing. Integrals were detected to ensure that all peaks were properly integrated, and if necessary, adjust integral parameters.
(§7) The quantification of an analyte was defined as a ratio of a peak area of the analyte to that of the internal standard.

CYP2C8 = CYP2C8 (Homo sapiens (Human), UniProt P10632); experiment: as above; type: in vitro ADME; settings: read-out: IC50 in inhibiting CYP Enzyme System 2C8
CYP2C8, sequence (P10632 whole entry): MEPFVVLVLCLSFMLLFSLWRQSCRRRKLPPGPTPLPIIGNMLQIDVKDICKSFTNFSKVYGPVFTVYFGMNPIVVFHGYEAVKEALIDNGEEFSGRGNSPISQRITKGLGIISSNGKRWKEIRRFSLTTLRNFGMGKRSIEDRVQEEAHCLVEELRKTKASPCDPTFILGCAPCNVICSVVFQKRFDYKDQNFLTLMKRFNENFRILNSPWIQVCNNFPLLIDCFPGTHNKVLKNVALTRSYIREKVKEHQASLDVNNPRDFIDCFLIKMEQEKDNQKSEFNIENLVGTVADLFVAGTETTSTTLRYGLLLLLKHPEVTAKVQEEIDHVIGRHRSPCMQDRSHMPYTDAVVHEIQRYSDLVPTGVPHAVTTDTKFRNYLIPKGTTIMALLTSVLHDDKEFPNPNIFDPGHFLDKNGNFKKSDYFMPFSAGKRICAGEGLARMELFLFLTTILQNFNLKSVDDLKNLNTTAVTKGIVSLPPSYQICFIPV
Protocol: as §1, §2, §3, §4, §5, §6, §7

CYP2C9 = CYP2C9 (Homo sapiens (Human), UniProt P11712); experiment: as above; type: in vitro ADME; settings: read-out: IC50 in inhibiting CYP Enzyme System 2C9
CYP2C9, sequence (P11712 whole entry): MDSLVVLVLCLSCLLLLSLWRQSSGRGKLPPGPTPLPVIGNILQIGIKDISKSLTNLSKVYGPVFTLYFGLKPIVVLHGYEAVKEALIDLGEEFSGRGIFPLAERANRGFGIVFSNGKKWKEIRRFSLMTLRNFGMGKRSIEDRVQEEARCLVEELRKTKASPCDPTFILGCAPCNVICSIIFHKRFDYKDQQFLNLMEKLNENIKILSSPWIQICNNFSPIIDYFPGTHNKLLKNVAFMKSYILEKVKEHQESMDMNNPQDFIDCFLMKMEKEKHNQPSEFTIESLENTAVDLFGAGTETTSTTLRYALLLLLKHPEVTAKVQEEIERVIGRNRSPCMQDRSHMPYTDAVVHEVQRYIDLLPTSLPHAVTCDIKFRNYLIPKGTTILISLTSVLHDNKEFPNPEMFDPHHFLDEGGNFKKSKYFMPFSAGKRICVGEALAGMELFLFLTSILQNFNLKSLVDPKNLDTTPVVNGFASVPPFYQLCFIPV
Protocol: as §1, §2, §3, §4, §5, §6, §7

CYP1A2 = CYP1A2 (Homo sapiens (Human), UniProt P05177); experiment: as above; type: in vitro ADME; settings: read-out: IC50 in inhibiting CYP Enzyme System 1A2
CYP1A2, sequence (P05177 whole entry): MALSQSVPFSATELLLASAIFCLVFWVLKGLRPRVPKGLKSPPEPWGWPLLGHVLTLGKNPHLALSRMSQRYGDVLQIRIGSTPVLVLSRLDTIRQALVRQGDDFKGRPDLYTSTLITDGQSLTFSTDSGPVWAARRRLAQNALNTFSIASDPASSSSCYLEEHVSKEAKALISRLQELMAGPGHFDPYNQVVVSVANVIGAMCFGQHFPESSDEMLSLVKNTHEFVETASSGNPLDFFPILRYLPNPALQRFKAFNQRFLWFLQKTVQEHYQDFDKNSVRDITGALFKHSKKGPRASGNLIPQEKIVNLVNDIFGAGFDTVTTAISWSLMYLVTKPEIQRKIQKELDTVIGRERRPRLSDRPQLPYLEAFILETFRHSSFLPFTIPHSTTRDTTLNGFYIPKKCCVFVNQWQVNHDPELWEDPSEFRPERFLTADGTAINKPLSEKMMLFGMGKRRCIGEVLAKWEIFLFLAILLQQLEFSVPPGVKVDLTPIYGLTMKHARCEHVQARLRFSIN
Protocol: as §1, §2, §3, §4, §5, §6, §7

CYP2C19 = CYP2C19 (Homo sapiens (Human), UniProt P33261); experiment: as above; type: in vitro ADME; settings: read-out: IC50 in inhibiting CYP Enzyme System 2C19
CYP2C19, sequence (P33261 whole entry): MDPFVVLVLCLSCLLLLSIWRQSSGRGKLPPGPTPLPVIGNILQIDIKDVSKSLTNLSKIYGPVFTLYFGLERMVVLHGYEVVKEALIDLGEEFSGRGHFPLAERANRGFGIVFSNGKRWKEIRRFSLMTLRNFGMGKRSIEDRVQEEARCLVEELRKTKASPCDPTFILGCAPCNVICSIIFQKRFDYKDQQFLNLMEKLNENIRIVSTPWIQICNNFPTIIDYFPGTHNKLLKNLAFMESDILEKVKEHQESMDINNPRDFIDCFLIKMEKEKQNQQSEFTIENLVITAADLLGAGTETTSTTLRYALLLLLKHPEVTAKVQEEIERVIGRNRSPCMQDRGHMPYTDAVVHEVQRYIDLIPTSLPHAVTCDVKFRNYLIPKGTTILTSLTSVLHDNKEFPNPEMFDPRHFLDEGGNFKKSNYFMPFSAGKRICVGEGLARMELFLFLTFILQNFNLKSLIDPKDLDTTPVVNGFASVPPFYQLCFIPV
Protocol: as §1, §2, §3, §4, §5, §6, §7

CYP3A4 = CYP3A4 (Homo sapiens (Human), UniProt P08684); experiment: as above; type: in vitro ADME
CYP3A4, sequence (P08684 whole entry): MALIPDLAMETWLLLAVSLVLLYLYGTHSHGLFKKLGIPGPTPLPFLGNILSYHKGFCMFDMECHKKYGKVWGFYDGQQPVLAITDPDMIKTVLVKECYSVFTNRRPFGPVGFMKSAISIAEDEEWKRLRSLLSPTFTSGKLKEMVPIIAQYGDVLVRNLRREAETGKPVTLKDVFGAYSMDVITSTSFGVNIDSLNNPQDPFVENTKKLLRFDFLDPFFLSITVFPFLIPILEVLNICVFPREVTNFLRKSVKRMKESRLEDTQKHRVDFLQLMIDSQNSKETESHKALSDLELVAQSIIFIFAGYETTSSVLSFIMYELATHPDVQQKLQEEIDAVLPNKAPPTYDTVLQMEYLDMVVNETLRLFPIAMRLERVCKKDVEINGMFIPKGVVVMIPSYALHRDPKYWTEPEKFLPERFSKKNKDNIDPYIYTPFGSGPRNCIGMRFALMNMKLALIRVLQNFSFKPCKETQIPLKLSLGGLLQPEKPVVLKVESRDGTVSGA
Protocol: as §1, §2, §3, §4, §5, §6, §7

[1] = Liver microsome metabolic stability (human); type: in vitro ADME; settings: human liver microsomes, read-out: Half Life t1/2, liver microsome metabolic stability (converted)
Protocol: (§8) 8 μL human liver microsomes (20 mg/mL), 20 μL NADPH and 368 μL of 0.1 M phosphate buffer were mixed, and then pre-incubated at 37° C. for 5 minutes. 4 μL working solutions (test compounds or positive control) were added, respectively. When pre-incubated at 37° C., 50 μL incubation solutions were taken out at 0, 10, 20, 30, 45 and 60 minute, and thereto was added a 150 μL solution of internal standard ([…]) in acetonitrile. 4 μL rat liver microsomes (20 mg/mL), 10 μL NADPH and 184 μL of 0.1 M phosphate buffer were mixed, and then pre-incubated at 37° C. for 5 minutes. 2 μL working solutions (test compounds or positive control) were added, respectively. When pre-incubated at 37° C., 20 μL incubation solutions were taken out at 0, 10, 20, 30, 45 and 60 minute, and thereto was added a 180 μL solution of internal standard (0.25 M warfarin) in acetonitrile. All samples were vortexed and centrifuged at 4000 rpm for 15 min, and 150 μL supernatants were added to a 96-well plate, and then 5 μL supernatants were detected in LC/MS/MS system. Chromatographic column for analysis was C18 1.7 μm 2.1×50 mm (Waters). Triple quadrupole mass spectrometry (API4000, AB Company) was used in detection. A ratio of the peak area of CT-1225 to that of the internal standard was detected in positive ion mode. […]

[2] = Liver microsome metabolic stability (rat); type: in vitro ADME; settings: rat liver microsomes, read-out: Half Life t1/2, liver microsome metabolic stability (converted)
Protocol: as §8

[3] = Measuring pharmacokinetics parameters in rats after intragastric administration; type: in vivo; settings: male, plasma; rat, PO, 5 mg/kg, 20% sulfobutyl-β-cyclodextrin
Protocol: The pharmacokinetic parameters of compounds of the present application were determined by using the following method.
Healthy male adult rats (7-9 weeks old) were used in this study. Each group of animals (3 male rats) was intragastrically administered once at a single dose of 5 mg/kg. The animals in the intragastric administration group were fasted overnight before this study. The fasting time period was from 10 hours before administration to 4 hours after administration.
Blood samples were taken at 0.25, 0.5, 1, 2, 4, 6, 8 and 24 h after administration. The animals were anesthetized with isoflurane using an animal anesthesia machine, and then 0.3 mL whole blood samples were taken from the fundus venous plexus. The blood samples were placed in heparin anticoagulant tubes, and centrifuged for 5 min at 4° C. and 4000 rpm. The resulting plasmas were transferred to centrifuge tubes, and stored at −80° C. until analysis.
Verified LC-MS/MS method was used to analyze the plasma samples. Plasma concentration-time data of animals were analyzed using WinNonlin (Professional Edition, version 6.3; Pharsight Company) software. The non-compartmental model was introduced for concentration analysis.

CYP2D6 = CYP2D6 (Homo sapiens (Human), UniProt P10635); experiment: biochemical; type: in vitro ADME; settings: human liver microsomes; read-out: IC50 in inhibiting CYP Enzyme System 2D6
CYP2D6, sequence (P10635 whole entry): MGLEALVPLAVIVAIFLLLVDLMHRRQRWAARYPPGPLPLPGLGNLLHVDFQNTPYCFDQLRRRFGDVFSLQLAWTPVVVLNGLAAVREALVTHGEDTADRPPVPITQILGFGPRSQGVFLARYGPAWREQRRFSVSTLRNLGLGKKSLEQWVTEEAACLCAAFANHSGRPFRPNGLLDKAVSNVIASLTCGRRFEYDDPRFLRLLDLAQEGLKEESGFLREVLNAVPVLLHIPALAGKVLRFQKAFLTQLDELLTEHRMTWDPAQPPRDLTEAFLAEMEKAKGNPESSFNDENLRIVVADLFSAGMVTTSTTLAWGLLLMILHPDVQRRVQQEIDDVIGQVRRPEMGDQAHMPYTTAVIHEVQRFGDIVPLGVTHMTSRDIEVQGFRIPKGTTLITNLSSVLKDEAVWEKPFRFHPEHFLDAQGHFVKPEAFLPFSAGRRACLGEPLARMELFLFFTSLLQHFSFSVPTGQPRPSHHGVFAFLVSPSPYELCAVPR
Protocol: as §1
as §2, with “below: […]” for “below:”
as §6, §7

serum DPP-IV = serum DPP-IV (Mus musculus (Mouse), UniProt P28843); experiment: in vivo; settings: for response vs control in vivo at 30 mg/kg: po, read-out: Specific activity of DPP-IV
serum DPP-IV, sequence (P28843 37-760): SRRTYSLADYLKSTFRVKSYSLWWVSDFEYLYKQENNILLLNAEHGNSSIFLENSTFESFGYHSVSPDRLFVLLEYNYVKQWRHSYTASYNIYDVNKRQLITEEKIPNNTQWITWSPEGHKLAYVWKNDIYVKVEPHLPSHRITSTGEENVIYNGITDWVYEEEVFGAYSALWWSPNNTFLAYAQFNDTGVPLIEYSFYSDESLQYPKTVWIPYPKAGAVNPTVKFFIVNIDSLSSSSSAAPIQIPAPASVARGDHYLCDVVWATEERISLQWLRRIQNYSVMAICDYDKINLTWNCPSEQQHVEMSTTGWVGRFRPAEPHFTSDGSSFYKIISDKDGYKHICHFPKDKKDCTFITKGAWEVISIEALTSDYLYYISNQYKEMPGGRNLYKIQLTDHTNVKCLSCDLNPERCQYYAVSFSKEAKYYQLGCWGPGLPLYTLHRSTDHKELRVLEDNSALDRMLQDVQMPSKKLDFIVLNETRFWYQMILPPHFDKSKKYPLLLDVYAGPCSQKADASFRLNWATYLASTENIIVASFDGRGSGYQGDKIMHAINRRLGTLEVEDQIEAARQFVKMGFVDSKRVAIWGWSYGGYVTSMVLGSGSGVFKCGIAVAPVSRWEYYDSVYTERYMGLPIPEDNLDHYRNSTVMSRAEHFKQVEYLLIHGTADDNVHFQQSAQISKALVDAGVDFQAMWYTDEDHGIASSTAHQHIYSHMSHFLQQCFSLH

- IC50 (CYP2B6): > 25 µM
- IC50 (CYP2C8): > 25 µM
- IC50 (CYP2C9): > 25 µM
- IC50 (CYP1A2): > 25 µM
- IC50 (CYP2C19): > 25 µM
- IC50 (CYP3A4; substrate Midazolam, read-out: IC50 in inhibiting CYP Enzyme System 3A4_Mid): > 25 µM
- IC50 (CYP3A4; substrate Testosterone, read-out: IC50 in inhibiting CYP Enzyme System 3A4_Tes): > 25 µM
- half-life [1]: 4.52 h
- half-life [2]: 8.26 h
- AUC(0-inf) [3]: 45600 ng·h/mL
- Cmax [3]: 4390 ng/mL
- Tmax [3]: 1.67 h
- half-life [3]: 17.1 h
- IC50 (CYP2D6): > 25 µM
Compound: CS(=O)(=O)c1ccc2c(c1)CN([C@H]1CO[C@H](c3cc(F)ccc3F)[C@@H](N)C1)C2 [Example 4, (2R,3S,5R)-5-(5-methylsulfonylisoindolin-2-yl)-2-(2,5-difluorophenyl)tetrahydro-2H-pyran-3-amine]

- half-life [1]: 4.09 h
- half-life [2]: 21.1 h
- response vs control in vivo at 30 mg/kg (serum DPP-IV; 2 h): 8.4%
- response vs control in vivo at 30 mg/kg (serum DPP-IV; 4 h): 7.4%
- response vs control in vivo at 30 mg/kg (serum DPP-IV; 10 h): 9.1%
- response vs control in vivo at 30 mg/kg (serum DPP-IV; 24 h): 15.6%
- response vs control in vivo at 30 mg/kg (serum DPP-IV; 34 h): 20.2%
- response vs control in vivo at 30 mg/kg (serum DPP-IV; 48 h): 45.5%
- response vs control in vivo at 30 mg/kg (serum DPP-IV; 58 h): 41.2%
- response vs control in vivo at 30 mg/kg (serum DPP-IV; 72 h): 58.4%
- response vs control in vivo at 30 mg/kg (serum DPP-IV; 96 h): 68%
- inhibition at 30 mg/kg (serum DPP-IV; read-out: inhibitory rate of serum DPP-IV activity in mice): > 70%
Compound: CS(=O)(=O)n1cc2c(n1)CN([C@H]1CO[C@H](c3cc(F)ccc3F)[C@@H](N)C1)C2 [Omarigliptin]

- AUC(0-inf) [3]: 52200 ng·h/mL
- Cmax [3]: 5960 ng/mL
- Tmax [3]: 2 h
- half-life [3]: 32.5 h
Compound: N[C@H]1C[C@@H](N2Cc3ccc(S(=O)(=O)C4CC4)cc3C2)CO[C@@H]1c1cc(F)ccc1F [Example 9, (2R,3S,5R)-5-(5-cyclopropylsulfonylisoindolin-2-yl)-2-(2,5-difluorophenyl) tetrahydro-2H-pyran-3-amine]
